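Interpolation was linear, between the two tested concentrations surrounding the appropriate level; five concentrations were tested over 48 hours in 96-well plates. TGI: concentration producing complete growth inhibition.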
Experiments:
Assay in all cases: DTP human tumour cell line panel, 48 h
ACHN renal = system: ACHN renal
NCI-H23 lung = system: NCI-H23 lung
786-0 renal = system: 786-0 renal
UO-31 renal = system: UO-31 renal
SNB-75 CNS = system: SNB-75 CNS
SR leukemia = system: SR leukemia
SF-295 CNS = system: SF-295 CNS
COLO 205 colon = system: COLO 205 colon
CCRF-CEM leukemia = system: CCRF-CEM leukemia
HCT-15 colon = system: HCT-15 colon
SK-OV-3 ovarian = system: SK-OV-3 ovarian
XF 498 CNS = system: XF 498 CNS
LOX IMVI melanoma = system: LOX IMVI melanoma
NCI-H460 lung = system: NCI-H460 lung
UACC-62 melanoma = system: UACC-62 melanoma
RPMI-8226 leukemia = system: RPMI-8226 leukemia
SK-MEL-28 melanoma = system: SK-MEL-28 melanoma
SN12C renal = system: SN12C renal
U251 CNS = system: U251 CNS
SNB-19 CNS = system: SNB-19 CNS
EKVX NSCLC = system: EKVX NSCLC
MOLT-4 leukemia = system: MOLT-4 leukemia
M14 melanoma = system: M14 melanoma
HL-60(TB) leukemia = system: HL-60(TB) leukemia
KM20L2 colon = system: KM20L2 colon
RXF 393 renal = system: RXF 393 renal
OVCAR-4 ovarian = system: OVCAR-4 ovarian
M19-MEL melanoma = system: M19-MEL melanoma
SW-620 colon = system: SW-620 colon
SF-539 CNS = system: SF-539 CNS
K-562 leukemia = system: K-562 leukemia
OVCAR-5 ovarian = system: OVCAR-5 ovarian
DLD-1 colon = system: DLD-1 colon
IGROV1 ovarian = system: IGROV1 ovarian
HT29 colon = system: HT29 colon
HOP-62 NSCLC = system: HOP-62 NSCLC
DMS 114 small cell lung = system: DMS 114 small cell lung
LXFL 529 NSCLC = system: LXFL 529 NSCLC
MALME-3M melanoma = system: MALME-3M melanoma
UACC-257 melanoma = system: UACC-257 melanoma
HCT-116 colon = system: HCT-116 colon
SNB-78 CNS = system: SNB-78 CNS
A498 renal = system: A498 renal
A549 NSCLC = system: A549 NSCLC
HOP-92 NSCLC = system: HOP-92 NSCLC
OVCAR-8 ovarian = system: OVCAR-8 ovarian
DMS 273 small cell lung = system: DMS 273 small cell lung
SF-268 CNS = system: SF-268 CNS
NCI-H522 lung = system: NCI-H522 lung
TK-10 renal = system: TK-10 renal
SK-MEL-2 melanoma = system: SK-MEL-2 melanoma
OVCAR-3 ovarian = system: OVCAR-3 ovarian
SK-MEL-5 melanoma = system: SK-MEL-5 melanoma
HCC-2998 colon = system: HCC-2998 colon
NCI-H226 lung = system: NCI-H226 lung
KM12 colon = system: KM12 colon
NCI/ADR-RES ovarian = system: NCI/ADR-RES ovarian
MCF7 breast = system: MCF7 breast
BT-549 breast = system: BT-549 breast
DU-145 prostate = system: DU-145 prostate
HS 578T breast = system: HS 578T breast
MDA-N = system: MDA-N
MDA-MB-435 = system: MDA-MB-435
MDA-MB-231 breast = system: MDA-MB-231 breast
PC-3 prostate = system: PC-3 prostate
CAKI-1 renal = system: CAKI-1 renal
T-47D breast = system: T-47D breast

SMILES: CS(=O)(=O)C1(Br)S(=O)(=O)OCCOS1(=O)=O
- TGI (ACHN renal): > 100 µM
- TGI (NCI-H23 lung): > 100 µM
- TGI (786-0 renal): > 100 µM
- TGI (UO-31 renal): > 100 µM
- TGI (SNB-75 CNS): > 100 µM
- TGI (SR leukemia): > 100 µM
- TGI (SF-295 CNS): > 100 µM
- TGI (COLO 205 colon): > 100 µM
- TGI (CCRF-CEM leukemia): > 100 µM
- TGI (HCT-15 colon): > 100 µM
- TGI (SK-OV-3 ovarian): > 100 µM
- TGI (XF 498 CNS): > 100 µM
- TGI (LOX IMVI melanoma): > 100 µM
- TGI (NCI-H460 lung): > 100 µM
- TGI (UACC-62 melanoma): > 100 µM
- TGI (RPMI-8226 leukemia): > 100 µM
- TGI (SK-MEL-28 melanoma): > 100 µM
- TGI (SN12C renal): > 100 µM
- TGI (U251 CNS): > 100 µM
- TGI (SNB-19 CNS): > 100 µM
- TGI (EKVX NSCLC): > 100 µM
- TGI (MOLT-4 leukemia): > 100 µM
- TGI (M14 melanoma): > 100 µM
- TGI (HL-60(TB) leukemia): > 100 µM
- TGI (KM20L2 colon): > 100 µM
- TGI (RXF 393 renal): > 100 µM
- TGI (OVCAR-4 ovarian): > 100 µM
- TGI (M19-MEL melanoma): > 100 µM
- TGI (SW-620 colon): > 100 µM
- TGI (SF-539 CNS): > 100 µM
- TGI (K-562 leukemia): > 100 µM
- TGI (OVCAR-5 ovarian): > 100 µM
- TGI (DLD-1 colon): > 100 µM
- TGI (IGROV1 ovarian): > 100 µM
- TGI (HT29 colon): > 100 µM
- TGI (HOP-62 NSCLC): > 100 µM
- TGI (DMS 114 small cell lung): > 100 µM
- TGI (LXFL 529 NSCLC): > 100 µM
- TGI (MALME-3M melanoma): > 100 µM
- TGI (UACC-257 melanoma): > 100 µM
- TGI (HCT-116 colon): > 100 µM
- TGI (SNB-78 CNS): > 100 µM
- TGI (A498 renal): > 100 µM
- TGI (A549 NSCLC): > 100 µM
- TGI (HOP-92 NSCLC): > 100 µM
- TGI (OVCAR-8 ovarian): > 100 µM
- TGI (DMS 273 small cell lung): > 100 µM
- TGI (SF-268 CNS): > 100 µM
- TGI (NCI-H522 lung): > 100 µM
- TGI (TK-10 renal): > 100 µM
- TGI (SK-MEL-2 melanoma): > 100 µM
- TGI (OVCAR-3 ovarian): > 100 µM
- TGI (SK-MEL-5 melanoma): > 100 µM
- TGI (HCC-2998 colon): > 100 µM
- TGI (NCI-H226 lung): > 100 µM

SMILES: O=C1C=C(C2=C(C3=CC(=O)c4ccccc4C3=O)C(=O)c3ccccc3C2=O)C(=O)c2ccccc21
- TGI (ACHN renal): 37.9 µM
- TGI (NCI-H23 lung): 19.7 µM
- TGI (786-0 renal): 12.6 µM
- TGI (KM12 colon): 30.8 µM
- TGI (UO-31 renal): 11.1 µM
- TGI (SNB-75 CNS): 35.3 µM
- TGI (SR leukemia): > 100 µM
- TGI (SF-295 CNS): 34 µM
- TGI (COLO 205 colon): 17.3 µM
- TGI (CCRF-CEM leukemia): 1.43 µM
- TGI (HCT-15 colon): 28.9 µM
- TGI (NCI/ADR-RES ovarian): 36.4 µM
- TGI (SK-OV-3 ovarian): 66.5 µM
- TGI (MCF7 breast): 29.6 µM
- TGI (LOX IMVI melanoma): 14.6 µM
- TGI (BT-549 breast): 28.9 µM
- TGI (NCI-H460 lung): 39.6 µM
- TGI (UACC-62 melanoma): 31.6 µM
- TGI (RPMI-8226 leukemia): 12.2 µM
- TGI (SK-MEL-28 melanoma): 29.8 µM
- TGI (SN12C renal): 16.5 µM
- TGI (U251 CNS): 18.1 µM
- TGI (SNB-19 CNS): 37.7 µM
- TGI (EKVX NSCLC): 33.8 µM
- TGI (DU-145 prostate): 16.5 µM
- TGI (MOLT-4 leukemia): 2.27 µM
- TGI (M14 melanoma): 22.5 µM
- TGI (HL-60(TB) leukemia): 3.68 µM
- TGI (RXF 393 renal): 14.5 µM
- TGI (OVCAR-4 ovarian): 17 µM
- TGI (HS 578T breast): 40 µM
- TGI (SW-620 colon): 20.5 µM
- TGI (SF-539 CNS): 21.7 µM
- TGI (K-562 leukemia): > 39.5 µM
- TGI (MDA-N): 5.65 µM
- TGI (OVCAR-5 ovarian): 25.6 µM
- TGI (IGROV1 ovarian): 8.1 µM
- TGI (HT29 colon): 12.5 µM
- TGI (HOP-62 NSCLC): 33.5 µM
- TGI (MDA-MB-435): 6.28 µM
- TGI (MALME-3M melanoma): 4.82 µM
- TGI (UACC-257 melanoma): 25.4 µM
- TGI (MDA-MB-231 breast): 13.8 µM
- TGI (PC-3 prostate): 47.6 µM
- TGI (HCT-116 colon): 20.5 µM
- TGI (A498 renal): 36.8 µM
- TGI (A549 NSCLC): 27 µM
- TGI (HOP-92 NSCLC): 18 µM
- TGI (CAKI-1 renal): 11.7 µM
- TGI (OVCAR-8 ovarian): 19.1 µM
- TGI (SF-268 CNS): 33.8 µM
- TGI (NCI-H522 lung): 7.17 µM
- TGI (TK-10 renal): 21.8 µM
- TGI (SK-MEL-2 melanoma): 42.4 µM
- TGI (T-47D breast): 29.5 µM
- TGI (OVCAR-3 ovarian): 12.9 µM
- TGI (SK-MEL-5 melanoma): 23.9 µM
- TGI (HCC-2998 colon): 43.1 µM
- TGI (NCI-H226 lung): 29.9 µM
